In ChEMBL document CHEMBL1201862, “PubChem BioAssay data set” (2004):
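Tested at 5 concentrations; 48 h exposure; 96-well plates; endpoints linearly interpolated, else capped at highest concentration. Abbreviation: GI50, concentration required for 50% inhibition of growth.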 Calls of active or inactive are those of the source. Cut-off read from the data, not from the text of the source: active = GI50 up to about 1.1 µM and inactive = higher.

Legend:
Assay in all cases: NCI anticancer screen, dose series, 48 h
SNB-78 = test system: SNB-78
SF-539 = test system: SF-539
DLD-1 = test system: DLD-1
UACC-62 = test system: UACC-62
UACC-257 = test system: UACC-257
A549 = test system: A549
LOX IMVI = test system: LOX IMVI
SNB-19 = test system: SNB-19
RXF 393 = test system: RXF 393
M19-MEL = test system: M19-MEL
UO-31 = test system: UO-31
EKVX = test system: EKVX
SF-295 = test system: SF-295
SK-MEL-28 = test system: SK-MEL-28
MOLT-4 = test system: MOLT-4

Measured: GI50

C/C(=N/NC(=O)c1ccccc1S(N)(=O)=O)C(CN1CCCCC1)C(C1=C(O)C2C=CC=CC2OC1=O)c1ccccc1 (configuration not stated)
inactive: SNB-78 > 100 µM | SF-539 > 100 µM | DLD-1 > 100 µM | UACC-62 82.6 µM | UACC-257 95.7 µM | A549 91.2 µM | LOX IMVI 74.5 µM | SNB-19 87.7 µM | RXF 393 28.4 µM | M19-MEL 47.6 µM | UO-31 74.5 µM | EKVX > 100 µM | SF-295 57.8 µM

O=C(NNc1ccc([N+](=O)[O-])cc1)C1OC(CO)C(O)C1O (configuration not stated)
inactive: SNB-78 > 100 µM | SF-539 > 100 µM | DLD-1 47.1 µM | UACC-62 > 100 µM | UACC-257 > 100 µM | A549 > 100 µM | LOX IMVI > 100 µM | SK-MEL-28 > 100 µM | SNB-19 > 100 µM | RXF 393 > 100 µM | M19-MEL > 100 µM | UO-31 > 100 µM | MOLT-4 > 100 µM | EKVX > 100 µM | SF-295 > 100 µM

CC(=O)Oc1ccc(Nn2c3ccccc3c3ccccc32)c(C)c1
inactive: SNB-78 39.4 µM | SF-539 > 10 µM | DLD-1 43.9 µM | UACC-62 51.5 µM | UACC-257 33.4 µM | A549 56.8 µM | LOX IMVI > 10 µM | SK-MEL-28 67.6 µM | SNB-19 78.7 µM | RXF 393 29.5 µM | M19-MEL 31.9 µM | UO-31 39.1 µM | MOLT-4 23.4 µM | SF-295 25.8 µM

CN1c2ccccc2N(C(=O)c2ccc([N+](=O)[O-])cc2)C(CC(=O)O)c2cccn21 (configuration not stated)
inactive: SNB-78 > 100 µM | SF-539 > 100 µM | DLD-1 > 100 µM | UACC-62 > 100 µM | UACC-257 > 100 µM | A549 > 100 µM | LOX IMVI > 100 µM | SK-MEL-28 > 100 µM | SNB-19 > 100 µM | RXF 393 > 100 µM | M19-MEL > 100 µM | UO-31 > 100 µM | MOLT-4 > 100 µM | EKVX > 100 µM | SF-295 > 100 µM

O=C1NC2CCCCCC2C12CCCCC2 (configuration not stated)
inactive: SNB-78 > 100 µM | SF-539 > 100 µM | DLD-1 > 100 µM | UACC-62 > 100 µM | UACC-257 > 100 µM | A549 > 100 µM | LOX IMVI > 100 µM | SK-MEL-28 > 100 µM | SNB-19 > 100 µM | RXF 393 > 100 µM | M19-MEL > 100 µM | UO-31 > 100 µM | MOLT-4 > 100 µM | EKVX > 100 µM | SF-295 > 100 µM
